In patent publication US9820943B2, “Micronized amoxicillin” (DSM SINOCHEM PHARMACEUTICALS NETHERLANDS B.V., priority 2013, dated 2017):

What was measured:
Format in all cases: physicochemical
[1] = Particle size distribution by laser diffraction (Malvern); conditions: trihydrate
Method: Particle size distribution values D10, D50, D90 and D100 were determined using laser diffraction applying Malvern equipment. A suitable apparatus for determining D10, D50, D90 and D100 is a Malvern particle sizer 2600 C or a Malvern Zeta Sizer.
(§1) Parameters operated were: • Augar Speed: 5-90 rpm • Primary Air Pressure: 2-8 kg·cm^−2 • Secondary Air Pressure: 4-10 kg·cm^−2 The surface area (in triplicate), average particle size and contact angle (in quadruplicate) were determined as outlined in the General section. The purity of the amoxicillin trihydrate samples was 99.4±0.3% and were void of dichloromethane, isopropanol, pivalic acid and triethyl amine.

[2] = Powder dissolution, USP/NF paddle method with HPLC analysis; conditions: 500 mg in 900 mL water, 37 °C, 75 rpm; for Amoxicillin released in solution Mean: mean of 3; for Amoxicillin released in solution #1: replicate #1; for Amoxicillin released in solution #2: replicate #2; for Amoxicillin released in solution #3: replicate #3
Method: Dissolution analysis of amoxicillin trihydrate powder samples was carried out using the USP/NF paddle method at a rotational speed of 75 rpm. Ultrapure ELGA laboratory water (900 mL) was used as dissolution medium. Media were equilibrated to 37.0±0.5° C. prior to dissolution. Amoxicillin trihydrate sample powder (500 mg) was directly added to the dissolution apparatus (Electrolab USP-24, India). Samples were collected at 0, 1, 3, 5, 10, 15, 30, 60 and 90 min, filtered through 0.2 μm filters and analyzed by HPLC. Dissolution profiles were constructed by plotting the percentage amoxicillin released against time.
The HPLC system (Shimadzu Corporation, Kyoto, Japan) comprised of an SCL-10A VP system controller, LC-10AT VP liquid chromatograph, FCV-10AL VP flow control valve, DGU-14A degasser, SIL-10AD VP auto-injector, CTO-10AS VP column oven, SPD-M20A prominence diode array (PDA) detector and data acquisition Class-VP 6.10 software. The HPLC method was adopted from the United States Pharmacopoeia (USP). The method was validated for linearity, precision, accuracy and intra- and inter-day variability. The mobile phase was 50 mM monobasic potassium phosphate:methanol (96:4, v/v, pH 5.0). All analyses were carried out using Lichrospher® 100 RP-18e analytical column (5 μm, Merck KGaA, Darmstadt, Germany) under isocratic conditions at a flow rate of 1.0 mL·min^−1 at 25° C. with 20 μL injection volume. Effluent was monitored at a wavelength of 230 nm. Samples for calibration curve generation were prepared in 50 mM monobasic potassium phosphate:methanol 1:1 (v/v) proportion at a concentration range of 1 to 600 μg·mL^−1.
The three non-micronized (i.e. entries 1-3 of Table 1) and micronized (i.e. entries 4-6 of Table 1) amoxicillin trihydrate samples of Example 1 were subjected to a powder dissolution test (in triplicate) as outlined in the General section.

[3] = Specific powder surface area by nitrogen gas sorption (BET); conditions: triplicate, trihydrate
Method: Specific powder surface area was determined using nitrogen gas sorption (Smartsorb, Smart Instruments, Mumbai, India). Prior to measurements, samples were regenerated by degassing to remove moisture and contamination. The regenerated sample was dipped in liquid nitrogen and the quantity of the adsorbed gas was measured using a thermal conductivity detector and subsequently integrated using an electronic circuit in terms of counts. The instrument was calibrated by injecting a known quantity of nitrogen. The measured parameters were subsequently used to calculate the surface area of the sample by employing the adsorption theories of Brunauer, Emmett and Teller (BET).
as §1

[4] = Contact angle by sessile drop method (water); conditions: ambient conditions, trihydrate
Method: Contact angles of amoxicillin trihydrate powder samples were measured by the sessile drop method using an Drop Shape Analyzer instrument (FTA 1000, First Ten Angstrom, Virginia, USA). Powder samples were mounted on double sided adhesive tape adhered to a glass slide and excess powder was removed by tapping the slide. A drop of probe liquid (water) was dispersed onto the sample surface and video images were captured by the FTA image analyzer. The contact angle was calculated by the instrument by fitting a mathematical expression to the shape of the drop followed by calculating the slope of the tangent to the drop at the liquid-solid-vapor interface line. The surface tension of ultrapure ELGA laboratory water was measured to be 73±0.5 mN·m^−1 at 25° C. All measurements were performed in air under ambient conditions and an average of four measurements was reported in the below Examples.
as §1

CC1(C)S[C@@H]2[C@H](NC(=O)[C@H](N)c3ccc(O)cc3)C(=O)N2[C@H]1C(=O)O.O.O.O [entry 4, amoxicillin trihydrate]
Average Particle Size D10 [1]: 1.9 μm
Average Particle Size D50 [1]: 10.1 μm
Average Particle Size D90 [1]: 23.1 μm
Average Particle Size D100 [1]: 44.6 μm
Amoxicillin released in solution Mean ([2]; 0 min): 0%
Amoxicillin released in solution #1 ([2]; 0 min): 0%
Amoxicillin released in solution #2 ([2]; 0 min): 0%
Amoxicillin released in solution #3 ([2]; 0 min): 0%
Amoxicillin released in solution Mean ([2]; 1 min, trihydrate): 56.64%
Amoxicillin released in solution #1 ([2]; 1 min, trihydrate): 54.49%
Amoxicillin released in solution #2 ([2]; 1 min, trihydrate): 57.74%
Amoxicillin released in solution #3 ([2]; 1 min, trihydrate): 57.67%
Amoxicillin released in solution Mean ([2]; 3 min, trihydrate): 77.11%
Amoxicillin released in solution #1 ([2]; 3 min, trihydrate): 76.32%
Amoxicillin released in solution #2 ([2]; 3 min, trihydrate): 76.89%
Amoxicillin released in solution #3 ([2]; 3 min, trihydrate): 78.12%
Amoxicillin released in solution Mean ([2]; 5 min, trihydrate): 84.17%
Amoxicillin released in solution #1 ([2]; 5 min, trihydrate): 85.25%
Amoxicillin released in solution #2 ([2]; 5 min, trihydrate): 82.78%
Amoxicillin released in solution #3 ([2]; 5 min, trihydrate): 84.47%
Amoxicillin released in solution Mean ([2]; 10 min, trihydrate): 87.43%
Amoxicillin released in solution #1 ([2]; 10 min, trihydrate): 88.15%
Amoxicillin released in solution #2 ([2]; 10 min, trihydrate): 86.80%
Amoxicillin released in solution #3 ([2]; 10 min, trihydrate): 87.34%
Amoxicillin released in solution Mean ([2]; 15 min, trihydrate): 89.71%
Amoxicillin released in solution #1 ([2]; 15 min, trihydrate): 90.61%
Amoxicillin released in solution #2 ([2]; 15 min, trihydrate): 89.05%
Amoxicillin released in solution #3 ([2]; 15 min, trihydrate): 89.49%
Amoxicillin released in solution Mean ([2]; 30 min, trihydrate): 93.77%
Amoxicillin released in solution #1 ([2]; 30 min, trihydrate): 93.27%
Amoxicillin released in solution #2 ([2]; 30 min, trihydrate): 95.75%
Amoxicillin released in solution #3 ([2]; 30 min, trihydrate): 91.85%
Amoxicillin released in solution Mean ([2]; 60 min, trihydrate): 98.50%
Amoxicillin released in solution #1 ([2]; 60 min, trihydrate): 97.15%
Amoxicillin released in solution #2 ([2]; 60 min, trihydrate): 99.70%
Amoxicillin released in solution #3 ([2]; 60 min, trihydrate): 98.65%
Amoxicillin released in solution Mean ([2]; 90 min, trihydrate): 99.31%
Amoxicillin released in solution #1 ([2]; 90 min, trihydrate): 97.76%
Amoxicillin released in solution #2 ([2]; 90 min, trihydrate): 99.52%
Amoxicillin released in solution #3 ([2]; 90 min, trihydrate): 100.66%
Surface Area Mean ± SD (n = 3) [3]: 1.78 ± 0.03 m^2 · g^−1
Contact Angle Mean ± SD (n = 4) [4]: 110.68 ± 0.23

CC1(C)S[C@@H]2[C@H](NC(=O)[C@H](N)c3ccc(O)cc3)C(=O)N2[C@H]1C(=O)O.O.O.O [entry 1, amoxicillin trihydrate]
Average Particle Size D10 [1]: 12.3 μm
Average Particle Size D50 [1]: 39.8 μm
Average Particle Size D90 [1]: 93.3 μm
Average Particle Size D100 [1]: 275.9 μm
Amoxicillin released in solution Mean ([2]; 0 min): 0%
Amoxicillin released in solution #1 ([2]; 0 min): 0%
Amoxicillin released in solution #2 ([2]; 0 min): 0%
Amoxicillin released in solution #3 ([2]; 0 min): 0%
Amoxicillin released in solution Mean ([2]; 1 min, trihydrate): 85.98%
Amoxicillin released in solution #1 ([2]; 1 min, trihydrate): 84.65%
Amoxicillin released in solution #2 ([2]; 1 min, trihydrate): 86.65%
Amoxicillin released in solution #3 ([2]; 1 min, trihydrate): 86.65%
Amoxicillin released in solution Mean ([2]; 3 min, trihydrate): 99.25%
Amoxicillin released in solution #1 ([2]; 3 min, trihydrate): 99.74%
Amoxicillin released in solution #2 ([2]; 3 min, trihydrate): 99.01%
Amoxicillin released in solution #3 ([2]; 3 min, trihydrate): 99.01%
Amoxicillin released in solution Mean ([2]; 5 min, trihydrate): 99.51%
Amoxicillin released in solution #1 ([2]; 5 min, trihydrate): 99.44%
Amoxicillin released in solution #2 ([2]; 5 min, trihydrate): 99.54%
Amoxicillin released in solution #3 ([2]; 5 min, trihydrate): 99.54%
Amoxicillin released in solution Mean ([2]; 10 min, trihydrate): 99.14%
Amoxicillin released in solution #1 ([2]; 10 min, trihydrate): 98.65%
Amoxicillin released in solution #2 ([2]; 10 min, trihydrate): 99.04%
Amoxicillin released in solution #3 ([2]; 10 min, trihydrate): 99.73%
Amoxicillin released in solution Mean ([2]; 15 min, trihydrate): 99.12%
Amoxicillin released in solution #1 ([2]; 15 min, trihydrate): 99.28%
Amoxicillin released in solution #2 ([2]; 15 min, trihydrate): 98.69%
Amoxicillin released in solution #3 ([2]; 15 min, trihydrate): 99.38%
Amoxicillin released in solution Mean ([2]; 30 min, trihydrate): 99.31%
Amoxicillin released in solution #1 ([2]; 30 min, trihydrate): 99.50%
Amoxicillin released in solution #2 ([2]; 30 min, trihydrate): 99.56%
Amoxicillin released in solution #3 ([2]; 30 min, trihydrate): 98.87%
Amoxicillin released in solution Mean ([2]; 60 min, trihydrate): 99.25%
Amoxicillin released in solution #1 ([2]; 60 min, trihydrate): 99.56%
Amoxicillin released in solution #2 ([2]; 60 min, trihydrate): 99.10%
Amoxicillin released in solution #3 ([2]; 60 min, trihydrate): 99.10%
Amoxicillin released in solution Mean ([2]; 90 min, trihydrate): 99.76%
Amoxicillin released in solution #1 ([2]; 90 min, trihydrate): 99.93%
Amoxicillin released in solution #2 ([2]; 90 min, trihydrate): 99.61%
Amoxicillin released in solution #3 ([2]; 90 min, trihydrate): 99.74%
Surface Area Mean ± SD (n = 3) [3]: 0.58 ± 0.09 m^2 · g^−1
Contact Angle Mean ± SD (n = 4) [4]: 75.50 ± 2.95
